“And” between values parts separate entries of the source, which are not always exact repeats. Equal entries are not always repeated.

The target in assay [1] is T1, Sestrin2 (Homo sapiens, UniProt P58004).
T1 sequence (P58004 1-480): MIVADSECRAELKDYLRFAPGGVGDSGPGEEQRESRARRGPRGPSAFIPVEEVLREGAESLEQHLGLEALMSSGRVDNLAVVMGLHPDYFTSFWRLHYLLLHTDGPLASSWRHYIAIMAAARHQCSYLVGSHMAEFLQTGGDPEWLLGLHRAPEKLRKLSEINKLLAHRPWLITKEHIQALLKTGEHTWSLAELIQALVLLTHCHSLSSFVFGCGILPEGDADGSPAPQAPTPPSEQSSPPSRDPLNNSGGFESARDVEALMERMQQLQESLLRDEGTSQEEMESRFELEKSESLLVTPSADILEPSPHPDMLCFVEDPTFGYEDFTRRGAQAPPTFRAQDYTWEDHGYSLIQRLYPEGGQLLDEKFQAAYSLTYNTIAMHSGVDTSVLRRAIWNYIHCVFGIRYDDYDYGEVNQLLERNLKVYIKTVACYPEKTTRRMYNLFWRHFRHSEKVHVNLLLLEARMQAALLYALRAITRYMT
As to the kind of experiment: Isothermal titration calorimetry (ITC) on Sestrin2. Format: binding. Details: Full-length, codon-optimized human Sestrin2 was cloned into a pMAL6H -C5XT bacterial expression vector; His6-MBP (TEV-cleavable) (N, cleaved yes); made in house; host or cells: Escherichia coli LOBSTR (DE3). Conditions: for Kd: estimated, Sestrin2 pre-exchanged with methionine. As to the method: Details of NV-5138 synthesis and protein preparation for ITC can be found in Supplementary Information.
For this exchange procedure ion exchange chromatography was used using the following buffers:
Buffer-A: HEPES 20mM pH 7.4, βME 5mM, Buffer-B: HEPES 20mM pH 7.4, βME 5mM, Methionine 5mM, Buffer-C: HEPES 20mM pH 7.4, βME 5mM, NaCl 1M. Sestrin2 (6 mg) was diluted to 5ml with buffer-A, and loaded on a MonoQ HR 5/50 column equilibrated in buffer-A. The column was washed with 2-3 column volume (CV) of buffer-A followed by 130 ml of buffer-B. The protein was then eluted in steps of 300 mM, 500 mM, and 1 M NaCl in buffer-C. The protein eluted in the 300 mM NaCl fractions and was concentrated to 7.6 mg/ml.

Another assay deals with mTORC1. The assay is described as follows: mTORC1 activation in rat brain after oral dosing (phosphorylated S6 S240/244 immunoblot). Format: in vivo. Particulars: for mTORC1 activation in brain (pS6 increase): 1 h after single oral dose, NV-5138 160 mg/kg, leucine 500 mg/kg; for increase in S240/244 pS6 versus vehicle: synaptoneurosomes from pre-frontal cortex. The text has this: Given the favorable PK properties of NV-5138, we wished to determine whether oral administration of NV-5138 could activate mTORC1 in the brain and other organs of ad libitum fed rats using the mTORC1 downstream substrate phosphorylated S6 (^S240/244pS6) as a surrogate PD parameter for the activation status of the complex.
After compound administration, animals were sacrificed by decapitation using a guillotine, immediately Specific regions of the brain were quickly microdissected, tissues collected, and flash frozen in liquid nitrogen. Peripheral tissues and all brain were homogenized using MP homogenizer in Lysis Buffer (Cell lysis buffer: 1% Triton X-100, 50 mM HEPES pH 7.4, 100 mM NaCl, 2 mM EDTA, 10 mM Beta-glycerophosphate, 10 mM Sodium pyrophosphate, and 1 protease inhibitor) at 4 °C. Synaptic proteins and mTORC1 analyses in each brain region were conducted on crude synaptoneurosome preparations as previously described. Equal amounts of total protein from each sample were denatured and, resolved by SDS-PAGE. Membranes were imaged using the LI-COR imaging system. Proteins levels are normalized to tubulin or GAPDH levels and further normalized to vehicle treated rats for each tissue. Antibodies used are listed in Supplementary Information.
(In general: In western blotting, separated proteins are transferred to a membrane and probed.)

The test system of another assay is HeLa cells. As to the kind of experiment: 14C-leucine protein incorporation assay in HeLa cells. Format: cell-based, human. Conditions: for effect on incorporation of 14C-leucine into precipitated proteins: 30 min labeling, CHX 10 ug/ml. As to the method: Since NV-5138 is an amino acid, we performed two different experiments to rule out any potential liabilities that could arise from the incorporation of NV-5138 into proteins. We first determined whether NV-5138 substitutes for any branched-chain amino acid or methionine into newly synthesized proteins using liquid chromatography followed by tandem mass spectroscopy (LC-MS/MS). NV-5138 (100 µM) or vehicle was incubated with serum and leucine-starved 293T cells for 6 hours followed by proteomic analysis by mass spectrometry.
After incubation, cells were harvested and lysed in Tris/HCl 10 mM pH 7.4 plus 1% NP40. Lysate were mixed with water and 20% trichloroacetic acid (1:1:2) and incubated on ice for 2 h to precipitate the protein. Proteins were collected by centrifugation, solubilized in NaOH, placed in scintillation fluid and read on a Wallac Microbeta Trilux 2450 with a 2-min count. Scintillation values were normalized as the percentage of the counts from the DMSO-treated wells.

Assay [2] has as its target T1, Sestrin2. As to the kind of experiment: Cellular thermal shift assay (CETSA), intracellular Sestrin2 in HEK-293T cells. Format: cell-based. Particulars: 30 min, leucine-starved HEK293T cells, read-out: increase of melting temperature of intracellular Sestrin2. As to the method: Expression of flag-WDR24 allows for immunoprecipitation of the Sestrin2/GATOR2 complex from amino acid-starved cells with an anti-flag antibody. […] Finally, to determine whether Sestrins and the GATOR pathway are required for NV-5138 activity, HEK-293T cells null for all three Sestrin isoforms or the GATOR1 component Nprl3 were obtained.
CETSA was performed as previously described. […] Cells were then collected, centrifuged for 3 min at 300 g at room-temperature (RT), washed with PBS, centrifuged again, and finally resuspended in 1 ml of RT PBS containing EDTA-free protease-inhibitor tablets (Roche). 100 µl of each cell suspension was heated at the noted temperature for 3 min, samples were then placed on the bench at RT for 3 min before being flash-frozen in liquid nitrogen. To lyse the cells, samples were put through two cycles of freeze-thawing followed by centrifugation at 20,000 g for 20 min at 4 °C. 80 µl of the resulting supernatant was denatured and, resolved by SDS-PAGE. Membranes were imaged using the LI-COR imaging system. Antibodies used are listed in Supplementary Information.

Where [3] appears, read: 160 mg/kg PO, 1 h, synaptoneurosomes.

By Kd is commonly meant the constant that tells how readily two partners part at equilibrium. Consider `CC(C)(C[C@H](N)C(=O)O)C(F)F` [NV-5138, (S)-2-amino-5,5-difluoro-4,4-dimethylpentanoic acid], for which the Kd on Sestrin2 [1] was 1500 nM and 1490 nM. Moreover, in the assay with mTORC1 (setting [3]), the “mTORC1 activation in cerebellum” value is reported as “but not the cerebellum” and the “mTORC1 activation in striatum, hippocampus, neocortex” value is “significant activation”. In the assay with mTORC1 (ad libitum fed rats), the “mTORC1 activation in brain (pS6 increase)” value is given as ~ 2 fold. Besides, in the assay on mTORC1 (single 160 mg/kg PO), the “time of peak mTORC1 activation in brain” value is ~ 3 h and the “time until mTORC1 activation back to baseline/vehicle levels” value is ≤ 7 h. Further, the “increase in S240/244 pS6 versus vehicle” value with mTORC1 (1 h after 80 mg/kg PO) is “trending increase”. In addition, in the assay with mTORC1 (1 h after 160 mg/kg PO, ad libitum fed rats), the “increase in S240/244 pS6 versus vehicle” value is on record as ~ 2 fold. Besides, the “effect on incorporation of 14C-leucine into precipitated proteins” value with HeLa cells was “did not show any competition”. The “effect on 14C-leucine incorporation at high doses” value in the assay with HeLa cells (high doses) was “appeared to increase”. For the same compound, the ΔTm at 300 µM at Sestrin2 [2] was ~2 °C.

As for `CC(C)C[C@H](N)C(=O)O` [Leucine, L-leucine, reference compound], at Sestrin2 [1], the “molar stoichiometry (ITC)” value turned out to be 1; the Kd is 1600 nM and 1550 nM. Also, the “mTORC1 activation in brain (pS6 increase)” value in the assay with mTORC1 (ad libitum fed rats) is reported as “no activation”. In addition, the “effect on incorporation of 14C-leucine into precipitated proteins” value with HeLa cells is listed as “blocked incorporation”. The ΔTm at 300 µM on Sestrin2 [2] was ~2 °C.

Values taken from PMC6412019, “Discovery of NV-5138, the first selective Brain mTORC1 activator” (Scientific Reports, 2019).
